In patent US11596623B2, “Methods for treating virus infection or proliferation” (HOWARD UNIVERSITY, priority 2018, dated 2023):

What was measured:
[1] = target: T1, recombinant RACK1A protein (Oryza sativa subsp. japonica, UniProt Q6L4F8); assay: Surface Plasmon Resonance (SPR) binding assay; set-up: species or system rice; settings: immobilized recombinant RACK1A, KD50=kd/ka
T1 construct: His tag (C); made in house; host or cells: E. coli BL21(DE3)
Method: SD-29 (left panel) and SD-29-12 (right panel) were separately injected three times on the CM5 chip at 0, 1.56 μM, at 3.13 μM, 6.25 μM, 12.5 μM, 25 μM, 50 μM, and 100 μM (top sensor) concentrations (left panel) and at 3.13 μM, 6.25 μM, 12.5 μM, 25 μM, 50 μM, and 100 μM (top sensor) concentrations (right panel).
To obtain in vitro confirmation of the binding of the isolated compounds to the purified RACK1 protein, the small compound SD-29 and its structural analog SD29-12 were evaluated for their binding potential with the recombinant RACK1A proteins using the Surface Plasmon Resonance (SPR) chip. SPR experiments were carried out with a Biacore T200 equipped with a CM5 sensor chip. Briefly, recombinant RACK1A cysteine-tagged protein was immobilized on flow cell (FC) 2 in HEPES buffered saline (10 mM Hepes, pH 7.4, and 150 mM NaCl, 3 mM CaCl2)) using a thiol-coupling kit according to the manufacturer's protocol, resulting in immobilization levels of 4580 response units (RU). FC1 was only activated and inactivated and used as a reference. SD-29 stock solution was diluted to a final concentration of 100, 75, 50, 25, 10 μM and 1 μM injected in 10 mM Hepes, 150 mM NaCl, 3 mM CaCl2), 1% DMSO, and 0.5% P20. Each injection was repeated three times for 60 s. […] KD50 is calculated by the equation: KD50=kd/ka; kd—dissociation rate constant, ka—association rate constant. […]

HSV-1 [2] = assay: Plaque formation unit (pfu) assay; type: cell-based
Method: The viral plaque assay was performed as previously described [Tang Q, Li L, Ishov A M, Revol V, Epstein A L, Maul G G. Determination of minimum herpes simplex virus type 1 components necessary to localize transcriptionally active DNA to ND10. J Virol. 2003; 77:5821-28.] with slight modifications. The HSV-1 strain 17 was diluted serially in a volume of 1 mL. Then 300 ul of the virus was added onto confluent HEp-2 cell monolayers in 12-well plates; each dilution had 3 wells. After adsorption for 2 h, the medium was removed and the cells were washed twice with serum-free DMEM and overlaid with phenol-free DMEM containing 5% FCS, 0.5% low-melting point agarose (GIBCO), and 1% penicillin-streptomycin. The cells were incubated at 37° C. for 48 hours. Neutral red was added on the agarose to stain the live cells. The plaques were counted and reported as pfu per mL. Mean pfu was determined after averaging the number of pfu from different dilutions. Student's t-tests were used to statistically analyze differences between the groups; a p-value lower than 0.005 was used as the threshold for a significant difference.
To assess the efficacy of SD-29 on the HSV-1 proliferation, a plaque assay was performed. We wanted to quantitatively assess whether SD-29 could inhibit viral replication. Because HSV-1 was able to enter cultured HEp-2 cells, we evaluated whether this entry led to productive virus replication.
In Table 1, confluent monolayers of HEp-2 cells were infected with serially diluted HSV-1 virus and were fixed and Giemsa stained at 0, 6, 12, and 24 hr post infection. The numbers of plaques were visualized. The number of plaques formed post infection decreased in the presence of SD-29 in a time-dependent manner.

HSV-1 [3] = assay: HSV-1 cytopathic effect in HEp-2 cells under microscope; type: cell-based; settings: 24 h, different concentrations, versus DMSO
Method: The HSV-1 virus and the indicated concentration of compounds were added and incubated for 24 h. After washing way the virus with PBS, image was taken under a compound microscope.

RACK1 = target: T2, RACK1 (Homo sapiens, UniProt P63244); assay: RACK1 protein western in EV-D68 infected HEp-2 cells; type: cell-based; settings: 48 h
T2 construct: endogenous in cells; host or cells: HEp-2 cells (human laryngeal carcinoma line), virus-infected
Method: HEp-2 cells were grown to 80-90% confluency in Dulbecco's Modified Eagle's medium (DMEM) supplemented with 10% fetal calf serum (FCS) and 1% penicillin-streptomycin (PS) and fungicide. The virus and the indicated concentration of compounds were added and incubated for 48 h. After washing with PBS, the cell lysates were collected and were run in a Biorad XT-Criterion gel and transferred to a PVDF membrane. The membrane was blotted with an antibody directed against the EVD68 major structural protein VP1 purchased from Genetex (Irvine, Calif.). An anti-mouse IgG-HRP secondary antibody and Biorad's Western ECL substrate-Clarity was used to label the bands and the image was obtained in a Biorad Gel doc system. […] The tubulin antibody was used as the loading control.
HEp-2 cells were grown to 80-90% confluency in Dulbecco's Modified Eagle's medium (DMEM) supplemented with 10% fetal calf serum FCS and 1% penicillin-streptomycin (PS) and fungicide. The representative virus (EV-D68) and the indicated concentration of compounds were added and incubated for 48 h. After washing with PBS, the cell lysates were collected and were run in a Biorad XT-Criterion gel and transferred to a PVDF membrane. The membrane was blotted with an antibody directed against the EV-D68 major structural protein VP1 purchased from Genetex (Irvine, Calif.). […]

T1 sequence (Q6L4F8 whole entry): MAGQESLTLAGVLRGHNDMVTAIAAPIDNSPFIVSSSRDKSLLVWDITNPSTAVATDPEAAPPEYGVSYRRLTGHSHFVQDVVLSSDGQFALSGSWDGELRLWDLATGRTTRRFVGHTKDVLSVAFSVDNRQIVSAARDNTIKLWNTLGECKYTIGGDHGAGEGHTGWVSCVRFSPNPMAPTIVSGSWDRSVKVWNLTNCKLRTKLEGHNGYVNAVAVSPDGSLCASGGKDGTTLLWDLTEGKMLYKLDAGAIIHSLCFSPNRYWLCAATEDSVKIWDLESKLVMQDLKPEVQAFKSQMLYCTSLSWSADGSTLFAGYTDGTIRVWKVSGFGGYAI

Row | SMILES | Kd [1] | Plaque formation unit (HSV-1 [2]; 0 hpi) | Plaque formation unit (HSV-1 [2]; 6 hpi) | Plaque formation unit (HSV-1 [2]; 12 hpi) | Plaque formation unit (HSV-1 [2]; 24 hpi) | production of infectious virions (HSV-1 [2]; infected HEp-2 cells, versus DMSO) | cytopathic effect of HSV-1 (HSV-1 [3]) | RACK1 protein level (RACK1)
1 | Nn1c(S)nnc1-c1ccc(F)cc1 [SD-29] | 42 µM | 0 ± 0 PFU/mL | 0 ± 0 PFU/mL | 1 ± 0.08 × 10^2 PFU/mL | 1.8 ± 0.04 × 10^5 PFU/mL | failed to produce significant infectious virions |  | 
2 | Nn1c(S)nnc1-c1cc(Cl)cc(Cl)c1 [SD29-14] |  |  |  |  |  |  | do not show the cytopathic effect | loss of RACK1 protein
